Experimental findings from PMC8767972 (Slas Discovery, 2022) are described below.

For one experiment, the target named is HKU1 main protease (Human coronavirus HKU1, UniProt P0C6X2). Type of experiment: biochemical, HKU1 CoV. The settings on record: read-out: HKU1 IC50.
For a further experiment, the target named is NL63 main protease (Human coronavirus NL63, UniProt P0C6X5). In kind it is biochemical, NL63 CoV. To be noted: read-out: NL63 IC50.
Sequence of NL63 main protease (P0C6X5 2940-3242 limits assumed): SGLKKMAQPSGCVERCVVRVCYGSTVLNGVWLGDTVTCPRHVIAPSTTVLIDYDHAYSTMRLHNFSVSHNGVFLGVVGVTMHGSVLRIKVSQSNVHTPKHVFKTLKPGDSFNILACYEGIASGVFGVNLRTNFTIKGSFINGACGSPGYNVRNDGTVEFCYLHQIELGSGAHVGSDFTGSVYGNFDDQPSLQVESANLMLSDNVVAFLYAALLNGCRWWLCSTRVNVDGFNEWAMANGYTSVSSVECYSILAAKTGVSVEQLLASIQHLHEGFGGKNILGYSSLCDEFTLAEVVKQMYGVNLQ

Sequence of HKU1 main protease (P0C6X2 3335-3637 limits assumed): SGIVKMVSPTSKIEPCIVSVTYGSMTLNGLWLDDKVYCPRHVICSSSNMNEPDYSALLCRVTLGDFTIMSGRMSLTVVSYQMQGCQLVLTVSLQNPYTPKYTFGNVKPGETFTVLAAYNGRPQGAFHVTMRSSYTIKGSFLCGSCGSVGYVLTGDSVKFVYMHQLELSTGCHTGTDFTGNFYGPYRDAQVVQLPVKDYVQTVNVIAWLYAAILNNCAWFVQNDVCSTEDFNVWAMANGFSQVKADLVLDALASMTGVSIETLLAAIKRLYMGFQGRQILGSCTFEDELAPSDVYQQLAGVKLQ

One may read the IC50 as the concentration that gives 50% inhibition. Regarding `CC(C)C[C@H](NC(=O)OCc1ccccc1)C(=O)N[C@@H](CC1CCNC1=O)C(O)S(=O)(=O)O` (some centres unmarked) [GC376], the values for the IC50 on HKU1 main protease and on NL63 main protease were 12 nM and 52 nM, respectively.
